In patent US10781181B2, “N-((het) arylmethyl)-heteroaryl-carboxamides compounds as plasma kallikrein inhibitors” (Kalvista Pharmaceuticals Limited, priority 2014, dated 2020) one finds IC50 and inhibition data, which are given here for 23 compounds.

Holding throughout (format): biochemical
The target in test [1] is Human plasma kallikrein (Homo sapiens (Human), UniProt P03952). The test is described as follows: Determination of the IC50 for plasma kallikrein. The conditions noted are these: read-out: IC50 (human PKal). How it is done: Determination of the IC50 for Plasma Kallikrein
Sequence of Human plasma kallikrein (P03952 391-638): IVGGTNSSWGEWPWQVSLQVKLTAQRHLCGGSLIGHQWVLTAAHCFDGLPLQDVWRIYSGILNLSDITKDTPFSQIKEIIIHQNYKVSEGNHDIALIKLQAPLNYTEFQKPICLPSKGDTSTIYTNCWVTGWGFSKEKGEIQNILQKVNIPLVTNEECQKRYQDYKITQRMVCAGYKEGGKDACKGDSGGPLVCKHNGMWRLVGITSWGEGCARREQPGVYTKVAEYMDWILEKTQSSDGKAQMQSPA
Sequence of Human plasma kallikrein (P03952 20-390 partner): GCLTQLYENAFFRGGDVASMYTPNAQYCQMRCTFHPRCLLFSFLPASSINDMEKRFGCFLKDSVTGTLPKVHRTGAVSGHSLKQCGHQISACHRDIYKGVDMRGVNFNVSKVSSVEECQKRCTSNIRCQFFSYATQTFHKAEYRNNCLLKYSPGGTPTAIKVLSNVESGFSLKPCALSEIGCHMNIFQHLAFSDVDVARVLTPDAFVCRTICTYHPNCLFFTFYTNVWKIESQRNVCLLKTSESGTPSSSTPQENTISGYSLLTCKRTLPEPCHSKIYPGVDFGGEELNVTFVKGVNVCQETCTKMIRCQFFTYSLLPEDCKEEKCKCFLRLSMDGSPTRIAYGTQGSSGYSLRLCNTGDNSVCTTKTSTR
Human plasma kallikrein (Protogen) was incubated at 25° C. with the fluorogenic substrate H-DPro-Phe-Arg-AFC and various concentrations of the test compound. Residual enzyme activity (initial rate of reaction) was determined by measuring the change in […] at 410 nm and the IC50 value for the test compound was determined.

The target in test [2] is Human KLK1 (Homo sapiens (Human), UniProt P06870). Description: Determination of the IC50 for KLK1. The conditions noted are these: human KLK1, 25° C., substrate H-DVal-Leu-Arg-AFC. As for the experimental part: Determination of the IC50 for KLK1
Sequence of Human KLK1 (P06870 25-262): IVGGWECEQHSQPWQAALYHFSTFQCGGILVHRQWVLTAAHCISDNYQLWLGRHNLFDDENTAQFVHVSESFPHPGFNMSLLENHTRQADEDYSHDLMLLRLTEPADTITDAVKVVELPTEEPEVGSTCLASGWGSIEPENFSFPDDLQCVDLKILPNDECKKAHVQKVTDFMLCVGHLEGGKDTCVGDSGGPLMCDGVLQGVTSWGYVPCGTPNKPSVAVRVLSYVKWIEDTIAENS
Human KLK1 (Callbiochem) was incubated at 25° C. with the fluorogenic substrate H-DVal-Leu-Arg-AFC and various concentrations of the test compound. Residual enzyme activity (initial rate of reaction) was determined by measuring the change in […] at 410 nm and the IC50 value for the test compound was determined.

The target in test [3] is Human FXIa (Homo sapiens (Human), UniProt P03951). Description: Determination of the % inhibition for FXIa. The conditions noted are these: read-out: % Inhibition @ 40 μM (human FXIa). As for the experimental part:
Determination of the % Inhibition for FXIa
Human FXIa (Enzyme Research Laboratories) was incubated at 25° C. with the fluorogenic substrate Z-Gly-Pro-Arg-AFC and 40 μM of the test compound. Residual enzyme activity (initial rate of reaction) was determined by measuring the change in […].

Setting [4] is: 40 μM of the test compound, human FXIa, 25° C.

Like-named read-outs stand apart in the source and are kept apart here.

One may read the IC50 as the concentration that inhibits the measured activity by half. The term inhibition denotes the share of the control response that was lost under treatment.

Sequence of Human FXIa (P03951 388-625 limits assumed): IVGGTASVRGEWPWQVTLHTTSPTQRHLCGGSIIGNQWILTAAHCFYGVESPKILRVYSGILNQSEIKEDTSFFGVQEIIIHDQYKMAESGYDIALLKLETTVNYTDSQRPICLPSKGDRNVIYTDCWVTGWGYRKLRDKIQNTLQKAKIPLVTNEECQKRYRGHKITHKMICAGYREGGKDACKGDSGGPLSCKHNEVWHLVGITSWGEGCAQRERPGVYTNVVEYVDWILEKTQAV
Sequence of Human FXIa (P03951 19-387 partner limits assumed): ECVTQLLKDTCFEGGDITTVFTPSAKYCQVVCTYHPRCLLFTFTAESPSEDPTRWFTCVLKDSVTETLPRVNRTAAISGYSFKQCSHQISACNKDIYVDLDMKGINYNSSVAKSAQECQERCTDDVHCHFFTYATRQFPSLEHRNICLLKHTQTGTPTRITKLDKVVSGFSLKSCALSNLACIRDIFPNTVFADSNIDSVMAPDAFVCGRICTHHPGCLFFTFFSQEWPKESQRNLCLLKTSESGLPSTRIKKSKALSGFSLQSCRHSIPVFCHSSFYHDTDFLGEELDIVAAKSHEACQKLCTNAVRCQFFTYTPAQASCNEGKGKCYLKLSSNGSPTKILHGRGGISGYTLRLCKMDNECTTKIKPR

Consider `Nc1nn(Cc2ccc(Cn3ccccc3=O)cc2)cc1C(=O)N[C@H]1CC(=O)N(c2cccc(Cl)c2)C1` [Example 111, 3-amino-N-[(3S)-1-(3-chlorophenyl)-5-oxopyrrolidin-3-yl]-1-({4-[(2-oxopyridin-1-yl)methyl]phenyl}methyl)pyrazole-4-carboxamide], for which the figures for the IC50 in test [1] and in test [2] were 0.0421 µM and more than 40 µM, respectively. Further, the inhibition at 40 µM in test [3] (setting [4]) was found to be 23%.

For `Nc1nn(Cc2ccc(Cn3ccccc3=O)cc2)cc1C(=O)NCCOc1ccc(Cl)c(Cl)c1` [Example 30, 3-amino-N-[2-(3,4-dichlorophenoxy}ethyl]-1-({4-[(2-oxopyridin-1-yl)methyl]phenyl}methyl)pyrazole-4-carboxamide], the IC50 is 0.0968 µM in test [1] and more than 40 µM in test [2]. In test [3] (setting [4]), the inhibition at 40 µM was 0%.

On to `Nc1nn(Cc2ccc(C(=O)O)cc2)cc1C(=O)NCCOc1cccc(Cl)c1` [Example 69, 4-[(3-amino-4-{[2-(3-chlorophenoxy)ethyl]carbamoyl}pyrazol-1-yl)methyl]benzoic acid], for which the IC50 is more than 10 µM in test [1] and more than 40 µM in test [2]. Also, in test [3], the inhibition at 40 µM was 0%.

With `C[C@H](COc1cccc(Cl)c1)NC(=O)c1cn(Cc2ccc(Cn3ccccc3=O)cc2)nc1N` [Example 113, 3-amino-N-[(2R)-1-(3-chlorophenoxy)propan-2-yl]-1-({4-[(2-oxopyridin-1-yl)methyl]phenyl}methyl)pyrazole-4-carboxamide], the figures for the IC50 in test [1] and in test [2] were 0.316 µM and more than 40 µM, respectively. Further, the inhibition at 40 µM in test [3] (setting [4]) turned out to be 3%.

Regarding `Nc1nn(Cc2cccc(N3CCCC3)n2)cc1C(=O)NCCOc1cccc(Cl)c1` [Example 53, 3-amino-N-[2-(3-chlorophenoxy)ethyl]-1-{[6-(pyrrolidin-1-yl)pyridin-2-yl]methyl}pyrazole-4-carboxamide], the IC50 is 4.73 µM in test [1] and more than 40 µM in test [2]. Moreover, the inhibition at 40 µM in test [3] (setting [4]) was 0%.

For `Nc1nn(Cc2ccnc(-n3cccn3)c2)cc1C(=O)NCCOc1cccc(Cl)c1` [Example 66, 3-amino-N-[2-(3-chlorophenoxy)ethyl]-1-{[2-(pyrazol-1-yl)pyridin-4-yl]methyl}pyrazole-4-carboxamide], the IC50 in test [1] is 4.92 µM; in test [2], more than 40 µM. Besides, the inhibition at 40 µM in test [3] (setting [4]) was found to be 0%.

On to `C[C@H](NC(=O)c1cn(Cc2ccc(Cn3ccccc3=O)cc2)nc1N)C(=O)N(C)c1cccc(Cl)c1` [Example 116, (2S)-2-{[3-amino-1-({4-[(2-oxopyridin-1-yl)methyl]phenyl}methyl)pyrazol-4-yl]formamido}-N-(3-chlorophenyl)-N-methylpropanamide], for which the half-inhibitory concentration (IC50) in test [1] was 0.39 µM; in test [2] it was more than 40 µM. The inhibition at 40 µM in test [3] (setting [4]) is 0%.

For `Nc1nn(Cc2ccc(Cn3ccccc3=O)cc2)cc1C(=O)NCCOc1cccc(Cl)c1Cl` [Example 29, 3-amino-N-[2-(2,3-dichlorophenoxy}ethyl]-1-({4-[(2-oxopyridin-1-yl)methyl]phenyl}methyl)pyrazole-4-carboxamide], the IC50 was 2.93 µM in test [1] and more than 40 µM in test [2]. In test [3] (setting [4]), the inhibition at 40 µM worked out at 0%.

For the compound `Nc1nn(Cc2ccc(Cn3ccccc3=O)cc2)cc1C(=O)N[C@@H]1CCN(c2cccc(Cl)c2)C1` [Example 106, 3-amino-N-[(3R)-1-(3-chlorophenyl)pyrrolidin-3-yl]-1-({4-[(2-oxopyridin-1-yl)methyl]phenyl}methyl)pyrazole-4-carboxamide], the figures for the IC50 in test [1] and in test [2] were 0.684 µM and more than 40 µM, respectively. Moreover, the inhibition at 40 µM in test [3] (setting [4]) turned out to be 4%.

Regarding `COCc1nn(Cc2ccc(Cn3ccccc3=O)cc2)cc1C(=O)NCCOc1cc(Cl)ccc1F` [Example 9, N-[2-(5-chloro-2-fluorophenoxy)ethyl]-3-(methoxymethyl)-1-({4-[(2-oxopyridin-1-yl)methyl]phenyl}methyl)pyrazole-4-carboxamide], the IC50 is 0.191 µM in test [1] and more than 10 µM in test [2]. In addition, in test [3] (setting [4]), the inhibition at 40 µM is 0%.

Take `C[C@@H](COc1cccc(Cl)c1)NC(=O)c1cn(Cc2ccc(Cn3ccccc3=O)cc2)nc1N` [Example 114, 3-amino-N-[(2S)-1-(3-chlorophenoxy)propan-2-yl]-1-({4-[(2-oxopyridin-1-yl)methyl]phenyl}methyl)pyrazole-4-carboxamide]: the IC50 in test [1] was 0.14 µM; in test [2], more than 40 µM. For the same compound, the inhibition at 40 µM in test [3] (setting [4]) stood at 0%.

For the compound `COCc1nn(Cc2ccc(Cn3ccccc3=O)cc2)cc1C(=O)NCCOc1ccccc1Cl` [Example 6, N-[2-(2-chlorophenoxy)ethyl]-3-(methoxymethyl)-1-({4-[(2-oxopyridin-1-yl)methyl]phenyl}methyl)pyrazole-4-carboxamide], the IC50 was 1.89 µM in test [1] and more than 10 µM in test [2]. The inhibition at 40 µM in test [3] (setting [4]) turned out to be 0%.

On to `CNc1nn(Cc2ccc(Cn3ccccc3=O)cc2)cc1C(=O)NCCOc1cccc(Cl)c1` [Example 37, N-[2-(3-Chlorophenoxy)ethyl]-3-(methylamino)-1-({4-[(2-oxopyridin-1-yl)methyl]phenyl}methyl)pyrazole-4-carboxamide], for which the IC50 was 0.0185 µM in test [1] and more than 40 µM in test [2]. For the same compound, in test [3] (setting [4]), the inhibition at 40 µM worked out at 8%.

As for `Nc1nn(Cc2cccc(-c3ccccc3)n2)cc1C(=O)NCCOc1cccc(Cl)c1` [Example 72, 3-amino-N-[2-(3-chlorophenoxy)ethyl]-1-[(6-phenylpyridin-2-yl)methyl]pyrazole-4-carboxamide], the IC50 in test [1] is 5.94 µM; in test [2], more than 40 µM. In test [3] (setting [4]), the inhibition at 40 µM stood at 26%.

For the compound `COCc1nn(Cc2ccc(Cn3ccccc3=O)cc2)cc1C(=O)NCCOc1ccc(F)c(Cl)c1` [Example 12, N-[2-(3-chloro-4-fluorophenoxy)ethyl]-3-(methoxymethyl)-1-({4-[(2-oxopyridin-1-yl)methyl]phenyl}methyl)pyrazole-4-carboxamide], the figures for the IC50 in test [1] and in test [2] were 0.266 µM and more than 10 µM, respectively. In addition, in test [3] (setting [4]), the inhibition at 40 µM came out at 0%.

Consider `Nc1nn(Cc2nc(-c3ccccc3)no2)cc1C(=O)NCCOc1cccc(Cl)c1` [Example 80, 3-amino-N-[2-(3-chlorophenoxy)ethyl]-1-[(3-phenyl-1,2,4-oxadiazol-5-yl)methyl]pyrazole-4-carboxamide], for which the IC50 was 6.33 µM in test [1] and more than 40 µM in test [2]. Also, the inhibition at 40 µM in test [3] (setting [4]) amounted to 0%.

On to `N#Cc1ccc(Cl)cc1OCCNC(=O)c1cn(Cc2ccc(Cn3ccccc3=O)cc2)nc1N` [Example 32, 3-amino-N-[2-(5-chloro-2-cyanophenoxy)ethyl]-1-({4-[(2-oxopyridin-1-yl)methyl]phenyl}methyl)pyrazole-4-carboxamide], for which the IC50 was 0.0101 µM in test [1] and more than 40 µM in test [2]. Further, the inhibition at 40 µM in test [3] (setting [4]) came to 10%.

As to `Nc1nn(Cc2ccc(Br)cc2)cc1C(=O)NCCOc1cccc(Cl)c1` [Example 55, 3-amino-1-[(4-bromophenyl)methyl]-N-[2-(3-chlorophenoxy)ethyl]pyrazole-4-carboxamide], the IC50 in test [1] was 6.41 µM; in test [2] it was more than 40 µM. For the same compound, the inhibition at 40 µM in test [3] is 80%.

Consider `Nc1nn(Cc2ccc(-n3cccn3)nc2)cc1C(=O)NCCOc1cccc(Cl)c1` [Example 88, 3-amino-N-[2-(3-chlorophenoxy)ethyl]-1-{[6-(pyrazol-1-yl)pyridin-3-yl]methyl}pyrazole-4-carboxamide], for which the IC50 in test [1] was 9.18 µM; in test [2], more than 40 µM. The inhibition at 40 µM in test [3] (setting [4]) was 0%.

Regarding `COCc1nn(Cc2ccc(Cn3ccccc3=O)cc2)cc1C(=O)NCCOc1cc(F)cc(Cl)c1` [Example 10, N-[2-(3-chloro-5-fluorophenoxy)ethyl]-3-(methoxymethyl)-1-({4-[(2-oxopyridin-1-yl)methyl]phenyl}methyl)pyrazole-4-carboxamide], the IC50 in test [1] is 0.134 µM; in test [2], more than 10 µM. For the same compound, in test [3] (setting [4]), the inhibition at 40 µM was 0%.

Consider `Nc1nn(Cc2ccc(Cn3cccnc3=O)cc2)cc1C(=O)NCCOc1cccc(Cl)c1` [Example 86, 3-amino-N-[2-(3-chlorophenoxy)ethyl]-1-({4-[(2-oxopyrimidin-1-yl)methyl]phenyl}methyl)pyrazole-4-carboxamide], for which the figures for the IC50 in test [1] and in test [2] were 0.0302 µM and more than 40 µM, respectively. The inhibition at 40 µM in test [3] (setting [4]) is 0%.

On to `Nc1nn(Cc2ccc(-c3ncccn3)cc2)cc1C(=O)NCCOc1cccc(Cl)c1` [Example 79, 3-amino-N-[2-(3-chlorophenoxy)ethyl]-1-{[4-(pyrimidin-2-yl)phenyl]methyl}pyrazole-4-carboxamide], for which the IC50 in test [1] is 5.87 µM; in test [2] it was more than 40 µM. Further, the inhibition at 40 µM in test [3] (setting [4]) was found to be 9%.

For `CN(CCNC(=O)c1cn(Cc2ccc(Cn3ccccc3=O)cc2)nc1N)c1cccc(Cl)c1` [Example 41, 3-amino-N-{2-[(3-chlorophenyl)(methyl)amino]ethyl}-1-({4-[(2-oxopyridin-1-yl)methyl]phenyl}methyl)pyrazole-4-carboxamide], the values for the IC50 in test [1] and in test [2] were 0.264 µM and more than 40 µM, respectively. Besides, in test [3] (setting [4]), the inhibition at 40 µM was 0%.
